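Growth conditions: 96-well plates. Treatment: test compound, 48 hours, 5 concentrations. Analysis: linear interpolation between bracketing concentrations; unreached endpoints set to highest concentration. GI50 marks 50% less growth.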 Activity calls are given as the source filed them. Cut-off read from the data, not from the text of the source: active = GI50 up to about 1.1 µM and inactive = higher.
Assays:
Experiment in all cases: growth of human tumour cells (NCI), 48 h
A549 = test system: A549
CAKI-1 = test system: CAKI-1
CCRF-CEM = test system: CCRF-CEM
DMS-273 = test system: DMS-273
EKVX = test system: EKVX
HCT-116 = test system: HCT-116
HCT-15 = test system: HCT-15
HL-60 = test system: HL-60
HOP-62 = test system: HOP-62
HOP-92 = test system: HOP-92
HT-29 = test system: HT-29
LOX IMVI = test system: LOX IMVI
LXFL 529 = test system: LXFL 529
M14 = test system: M14
M19-MEL = test system: M19-MEL
MOLT-4 = test system: MOLT-4
Malme-3M = test system: Malme-3M
NCI-H226 = test system: NCI-H226
NCI-H23 = test system: NCI-H23
NCI-H460 = test system: NCI-H460
OVCAR-3 = test system: OVCAR-3
OVCAR-4 = test system: OVCAR-4
RXF 393 = test system: RXF 393
SF-268 = test system: SF-268
SF-295 = test system: SF-295
SF-539 = test system: SF-539
SK-MEL-28 = test system: SK-MEL-28
SK-MEL-2 = test system: SK-MEL-2
SK-MEL-5 = test system: SK-MEL-5
SN12C = test system: SN12C
SNB-19 = test system: SNB-19
SNB-75 = test system: SNB-75
SNB-78 = test system: SNB-78
UACC-257 = test system: UACC-257
UACC-62 = test system: UACC-62
UO-31 = test system: UO-31
786-0 = test system: 786-0
A498 = test system: A498
ACHN = test system: ACHN
BT-549 = test system: BT-549
COLO 205 = test system: COLO 205
DU-145 = test system: DU-145
HCC 2998 = test system: HCC 2998
Hs-578T = test system: Hs-578T
IGROV-1 = test system: IGROV-1
K562 = test system: K562
KM12 = test system: KM12
MCF7 = test system: MCF7
MDA-MB-231 = test system: MDA-MB-231
MDA-MB-435 = test system: MDA-MB-435
MDA-N = test system: MDA-N
NCI-H522 = test system: NCI-H522
NCI/ADR-RES = test system: NCI/ADR-RES
OVCAR-5 = test system: OVCAR-5
OVCAR-8 = test system: OVCAR-8
PC-3 = test system: PC-3
RPMI-8226 = test system: RPMI-8226
SK-OV-3 = test system: SK-OV-3
SR = test system: SR
SW-620 = test system: SW-620
T47D = test system: T47D
TK-10 = test system: TK-10
U-251 = test system: U-251
DLD-1 = test system: DLD-1

## COc1cc(C2c3cc4c(cc3[C@@H](Nc3ccc(C(=O)O)cc3)C3COC(=O)[C@H]23)OCO4)cc(OC)c1O (some centres undefined)
A549
  GI50: > 17.5 µM (inactive)
CAKI-1
  GI50: 5.93 µM (inactive)
CCRF-CEM
  GI50: 2.56 µM (inactive)
DMS-273
  GI50: 5.65 µM (inactive)
EKVX
  GI50: > 17.5 µM (inactive)
HCT-116
  GI50: 14.5 µM (inactive)
HCT-15
  GI50: 7.5 µM
HL-60
  GI50: 3.24 µM (inactive)
HOP-62
  GI50: 6.11 µM (inactive)
HOP-92
  GI50: 4.81 µM (inactive)
HT-29
  GI50: 11.1 µM (inactive)
LOX IMVI
  GI50: 2.42 µM (inactive)
LXFL 529
  GI50: 5.82 µM (inactive)
M14
  GI50: 12.6 µM (inactive)
M19-MEL
  GI50: 10 µM (inactive)
MOLT-4
  GI50: 0.546 µM (active)
Malme-3M
  GI50: 8.55 µM (inactive)
NCI-H226
  GI50: 4.47 µM (inactive)
NCI-H23
  GI50: 7.74 µM (inactive)
NCI-H460
  GI50: 2.01 µM (inactive)
OVCAR-3
  GI50: 14.7 µM (inactive)
OVCAR-4
  GI50: 11 µM (inactive)
RXF 393
  GI50: 10.5 µM (inactive)
SF-268
  GI50: 10.8 µM (inactive)
SF-295
  GI50: 8.85 µM (inactive)
SF-539
  GI50: 4.7 µM (inactive)
SK-MEL-28
  GI50: > 17.5 µM (inactive)
SK-MEL-2
  GI50: 16.6 µM (inactive)
SK-MEL-5
  GI50: 9.77 µM (inactive)
SN12C
  GI50: > 17.5 µM (inactive)
SNB-19
  GI50: 6.11 µM (inactive)
SNB-75
  GI50: 6.58 µM (inactive)
SNB-78
  GI50: 5.78 µM (inactive)
UACC-257
  GI50: > 17.5 µM (inactive)
UACC-62
  GI50: 9.82 µM (inactive)
UO-31
  GI50: > 17.5 µM (inactive)

## COc1ccc(CC2c3cc(Oc4cc(CC5c6cc(OC)c(OC)cc6CCN5C)ccc4O)c(OC)cc3CCN2C)cc1 (centres undefined)
786-0
  GI50: 3.02 µM (inactive)
A498
  GI50: 7.96 µM (inactive)
A549
  GI50: 6.73 µM (inactive)
ACHN
  GI50: 7.01 µM (inactive)
BT-549
  GI50: 6.64 µM (inactive)
CAKI-1
  GI50: 1.48 µM (inactive)
CCRF-CEM
  GI50: 0.519 µM (active)
COLO 205
  GI50: 7.06 µM (inactive)
DU-145
  GI50: 1.3 µM (inactive)
EKVX
  GI50: 8.65 µM (inactive)
HCC 2998
  GI50: 1.14 µM (inactive)
HCT-116
  GI50: 2.22 µM (inactive)
HCT-15
  GI50: 2.17 µM
HL-60
  GI50: 7.78 µM (inactive)
HOP-62
  GI50: 7.93 µM (inactive)
HOP-92
  GI50: 7.41 µM (inactive)
HT-29
  GI50: 2.06 µM (inactive)
Hs-578T
  GI50: 9.62 µM (inactive)
IGROV-1
  GI50: 8.59 µM (inactive)
K562
  GI50: 1.36 µM (inactive)
KM12
  GI50: 1.77 µM (inactive)
LOX IMVI
  GI50: 2.55 µM (inactive)
M14
  GI50: 5.64 µM (inactive)
MCF7
  GI50: 5.81 µM (inactive)
MDA-MB-231
  GI50: 7.91 µM (inactive)
MDA-MB-435
  GI50: 4.14 µM (inactive)
MDA-N
  GI50: 7.1 µM (inactive)
MOLT-4
  GI50: 5.52 µM (inactive)
Malme-3M
  GI50: 10.1 µM (inactive)
NCI-H226
  GI50: 10.2 µM (inactive)
NCI-H23
  GI50: 8.18 µM (inactive)
NCI-H460
  GI50: 6.98 µM (inactive)
NCI-H522
  GI50: 6.81 µM (inactive)
NCI/ADR-RES
  GI50: 7.48 µM (inactive)
OVCAR-3
  GI50: 8.05 µM (inactive)
OVCAR-4
  GI50: 2.42 µM (inactive)
OVCAR-5
  GI50: 9.44 µM (inactive)
OVCAR-8
  GI50: 5.96 µM (inactive)
PC-3
  GI50: 5.47 µM (inactive)
RPMI-8226
  GI50: 2.44 µM (inactive)
RXF 393
  GI50: 5.92 µM (inactive)
SF-268
  GI50: 9.14 µM (inactive)
SF-295
  GI50: 8.2 µM (inactive)
SF-539
  GI50: 8.63 µM (inactive)
SK-MEL-28
  GI50: 7.8 µM (inactive)
SK-MEL-2
  GI50: 8.65 µM (inactive)
SK-MEL-5
  GI50: 7.6 µM (inactive)
SK-OV-3
  GI50: 9.29 µM (inactive)
SN12C
  GI50: 8 µM (inactive)
SNB-19
  GI50: 6.1 µM (inactive)
SNB-75
  GI50: 8.45 µM (inactive)
SR
  GI50: 1.43 µM (inactive)
SW-620
  GI50: 1.66 µM (inactive)
T47D
  GI50: 6.43 µM (inactive)
TK-10
  GI50: 3.87 µM (inactive)
U-251
  GI50: 5.74 µM (inactive)
UACC-257
  GI50: 8.04 µM (inactive)
UACC-62
  GI50: 8.65 µM (inactive)
UO-31
  GI50: 5.25 µM (inactive)

## COc1ccc2c3c(c4cc(OC)c(OC)cc4c2c1)C[C@H]1CCCCN1C3 [CRYPTOPLEURINE]
DLD-1
  GI50: 0.005 µM (active)
HCT-116
  GI50: 0.005 µM (active)
HT-29
  GI50: 0.005 µM (active)
LOX IMVI
  GI50: 0.005 µM (active)
MCF7
  GI50: 0.005 µM (active)
OVCAR-4
  GI50: 0.005 µM (active)
OVCAR-8
  GI50: 0.005 µM (active)
SK-OV-3
  GI50: 0.005 µM (active)
SNB-78
  GI50: 0.005 µM (active)
U-251
  GI50: 0.005 µM (active)

## N/N=C1\C(OC(=O)Nc2cccc(Cl)c2)=Nc2ccccc21
786-0
  GI50: 6.64 µM (inactive)
A498
  GI50: 11.4 µM (inactive)
A549
  GI50: 5.92 µM (inactive)
ACHN
  GI50: 8 µM (inactive)
BT-549
  GI50: 7.96 µM (inactive)
CAKI-1
  GI50: 4.47 µM (inactive)
CCRF-CEM
  GI50: 5.93 µM (inactive)
COLO 205
  GI50: 6.95 µM (inactive)
DU-145
  GI50: 8.39 µM (inactive)
EKVX
  GI50: 4.05 µM (inactive)
HCC 2998
  GI50: 5.71 µM (inactive)
HCT-116
  GI50: 4.67 µM (inactive)
HCT-15
  GI50: 6.89 µM
HL-60
  GI50: 13.6 µM (inactive)
HOP-62
  GI50: 2.75 µM (inactive)
HOP-92
  GI50: 6.47 µM (inactive)
HT-29
  GI50: 6.59 µM (inactive)
Hs-578T
  GI50: 16.1 µM (inactive)
IGROV-1
  GI50: 8.15 µM (inactive)
K562
  GI50: 5.92 µM (inactive)
KM12
  GI50: 4.58 µM (inactive)
LOX IMVI
  GI50: 7.83 µM (inactive)
M14
  GI50: 7.01 µM (inactive)
MCF7
  GI50: 8.51 µM (inactive)
MDA-MB-231
  GI50: 12.1 µM (inactive)
MDA-MB-435
  GI50: 8.57 µM (inactive)
MDA-N
  GI50: 3.12 µM (inactive)
MOLT-4
  GI50: 6.49 µM (inactive)
Malme-3M
  GI50: 12.1 µM (inactive)
NCI-H226
  GI50: 15.3 µM (inactive)
NCI-H23
  GI50: 5.07 µM (inactive)
NCI-H460
  GI50: 6.9 µM (inactive)
NCI-H522
  GI50: 3.13 µM (inactive)
NCI/ADR-RES
  GI50: 6.4 µM (inactive)
OVCAR-3
  GI50: 2.6 µM (inactive)
OVCAR-4
  GI50: 7.33 µM (inactive)
OVCAR-5
  GI50: 14 µM (inactive)
OVCAR-8
  GI50: 7.31 µM (inactive)
PC-3
  GI50: 4.98 µM (inactive)
RPMI-8226
  GI50: 2.9 µM (inactive)
RXF 393
  GI50: 13 µM (inactive)
SF-268
  GI50: 12.1 µM (inactive)
SF-295
  GI50: 2.35 µM (inactive)
SF-539
  GI50: 17.1 µM (inactive)
SK-MEL-28
  GI50: 14.8 µM (inactive)
SK-MEL-2
  GI50: 10.3 µM (inactive)
SK-MEL-5
  GI50: 11.5 µM (inactive)
SK-OV-3
  GI50: 7.43 µM (inactive)
SN12C
  GI50: 4.95 µM (inactive)
SNB-19
  GI50: 7.13 µM (inactive)
SNB-75
  GI50: 6.22 µM (inactive)
SR
  GI50: 11.4 µM (inactive)
SW-620
  GI50: 9.12 µM (inactive)
T47D
  GI50: 2.45 µM (inactive)
TK-10
  GI50: 12.1 µM (inactive)
U-251
  GI50: 6.9 µM (inactive)
UACC-257
  GI50: 13.7 µM (inactive)
UACC-62
  GI50: 7.78 µM (inactive)
UO-31
  GI50: 5.32 µM (inactive)

From ChEMBL document CHEMBL1201862, “PubChem BioAssay data set” (2004)
